Reference: patent US8957033B2, “Inhibitor of sodium-dependent glucose transport protein and preparation method therefor and use thereof” (Beijing Prelude Pharm. SCI. & Tech. Co., Ltd., priority 2011, dated 2015)

Experiments:
[1] = Pharmacokinetic test in vivo in SD rats; set-up: species or system male SD rats; conditions: 10 mg/kg; for AUC(0-inf) / AUC(0-t) / C0 / MRT / half-life / Tmax / bioavailability: male, rat, plasma; for bioavailability: read-out: F (oral bioavailability)
Description: Compound 1, compound 2 and compound 3 were respectively dissolved in blank solution (5% 1-methyl-2-pyrrolidinone, 20% PEG-400 and 20 mM sodium diphosphate) in a concentration of 10 g/L.
Experimental animals are male SD rats of 6-8 weeks old, with weight of 190-215 g, which were purchased from Beijing Vital River Laboratory Animal Technology Co., Ltd. The SD rats were randomly divided into seven groups based on body weight, each group containing three rats. Wherein group 1 is the blank control group in which the blank solution was administrated intravenously.
Before the pharmacokinetic test, the SD rats were fasted for 16 hours, and then administrated intravenously (1 mL/kg; 10 mg/kg) or orally (1 mL/kg; 10 mg/kg) with single dose of the compound or blank solution according to Table 4. After administration 200 uL blood samples were collected regularly through jugular vein puncture, wherein for the group of animals administered intravenously, blood samples were collected at 0 minute, 15 minutes, 30 minutes, 1 hour, 2 hours, 4 hours, 8 hours and 24 hours after administration; for the group of animals administered orally, blood samples were collected at 0 minute, 15 minutes, 30 minutes, 45 minutes, 75 minutes, 135 minutes, 4 hours, 8 hours and 24 hours after administration. The blood samples were collected in a sample tube with EDTA, and immediately centrifuged under 4000 rpm for 0.5 minutes at 4° C., and then the plasma was transferred to another sample tube and stored at −20° C.
The method and instruments for pharmacokinetics test of samples were as follows: • HPLC: Shimadzu (DGV-20A3, Serial NO: SSI-3-0536; LC-20AD Serial NO: • L20104551674 USB and L20104551673 USB), CTC Analytics HTC PAL System (Serial NO: 4353); • MS: AB API4000 Q Trap LC/MS/MS instrument (Serial NO. AR19020706) • Column: Phenomenex Luna 5μ C18 (2.0×50 mm) • Mobile phase: 100% acetonitrile (2 mM ammonium acetate) and 100% water (2 mM ammonium acetate) • Quantitative Method: internal standard method

male SD rats [2] = assay: Oral glucose tolerance test, glucose 15 minutes after administration (Example 5); assay type: in vivo; conditions: 10 mg/kg orally; for Blood glucose / ΔAUC: Mean ± SD; for Effect on blood glucose level (in words): compared with the blank control group
Description: Compound 1, compound 2 and compound 3 were respectively dissolved in blank solutions (5% 1-methyl-2-pyrrolidinone, 20% PEG-400 and 20 mM sodium diphosphate) in the concentration of 10 g/L.
Experimental animals are male SD rats of 6-8 weeks old, with weight of 190-215 g, which were purchased from Beijing Vital River Laboratory Animal Technology Co., Ltd. The SD rats were randomly divided into four groups based on body weight, each group containing three rats. Wherein group 1 is the blank control group in which the rats were administrated with the above blank solution.
Before the test, the rats were fasted for 16 hours and then administrated orally with the blank solution or compounds. The blood glucose baseline level was measured at 15 minutes after administration, then the rats in each group were administrated orally with 50% glucose aqueous solution in an amount of 2 g/kg. The blood samples (1 drop) were taken from tail veins of rats in each group at 15 minutes, 30 minutes, 1 hour and 2 hours after oral administration of glucose, and the blood glucose level was measured by using Accu-Chek Aviva system.
(§1) Statistical analysis was conducted and the significance level was set to be P<0.05. The mean and standard deviation were calculated for all measurement parameters which were designed for study. One-way analysis of variance (ANOVA) was performed by software GraphPad Prism 5.0 after multiple comparisons among groups.

male SD rats [3] = assay: Oral glucose tolerance test, glucose 8 hours after administration (Example 6), blood glucose; assay type: in vivo; conditions: for Blood glucose / ΔAUC: 10 mg/kg orally, Mean ± SD; for Effect on blood glucose level (in words): glucose at 8 hours after administration, compared with the blank control group
Description: (§2) Preparation of the administrated drugs, and grouping and administration of the animals were the same as those in Example 5.
(§3) Before the test, the rats were fasted for 16 hours and then administrated orally with the blank solution or compounds. The blood glucose baseline level was measured at 8 hours after administration, then the rats in each group were administrated orally with 50% glucose aqueous solution in an amount of 2 g/kg. The blood samples (1 drop) were taken from tail veins of rats in each group at 15 minutes, 30 minutes, 1 hour and 2 hours after oral administration of glucose, and the blood glucose level was measured by using Accu-Chek Aviva system.
as §1

male SD rats [4] = assay: Urine glucose at end of glucose tolerance test (Example 6); assay type: in vivo; conditions: for Urine glucose: 10 mg/kg orally, urine collected at end of glucose tolerance test, Mean ± SD
Description: as §2, §3
At the end of the test, urine of the rats in each group was collected, and then the urine glucose level was analyzed by using TOSHIBA TBA-40FR automatic biochemical analyzer.
as §1

[5] = Stability test in vitro, human liver microsomes with NADPH; conditions: 2 μM, NADPH 1 mM, 37° C.
Description: (§4) 1) Master solution was prepared according to Table 1, and then the test compounds and control compound were added into the master solution, with the final concentration of these compounds in the reaction system being 2 μM. Then the mixed solution was preheated at 37° C. for 2 minutes.
(§5) 2) NADPH was added into the mixed solution with the final concentration of NADPH being 1 mM, and then the reaction system was incubated at 37° C. The blank control was also added with the same volume of ultrapure water instead of NADPH.
(§6) 3) 50 μL aliquots were taken out from the reaction system at 0, 15, 30, 45 and 60 minutes, and added with 3 volumes of cold methanol to terminate the reaction. The aliquot was centrifugated for 10 minutes under 16000 g to precipitate proteins. 100 μL of supernatant was used for LC/MS/MS analysis, to determine the amounts of the remaining test compounds and the control compound. The aliquots were detected in duplicate.
(§7) The instruments and conditions for LC analysis were as follows:
(§8) Shimadzu (Degasser DGU—20A3, Solvent Delivery Unit LC—20ADXR, System Controller CBM—20A, Column Oven CTO—10ASVP), CTC Analytics HTC PAL—XT System
(§9) Column: Phenomenex 5μ C 18 (2) (2.0×50 mm)
(§10) The instrument and conditions for MS/MS analysis were as follows: • AB API4000 LC/MS/MS instrument • Source: Turbo spray • Ionization mode: ESI • Type of scan: MRM • Collision gas: 6 L/min; curtain gas: 30 L/min; atomized gas: 50 L/min; auxiliary gas: 50 L/min; temperature: 500° C.; spray voltage: 4500 v.

[6] = Stability test in vitro, male rat liver microsomes with NADPH; conditions: 2 μM, NADPH 1 mM, 37° C.
Description: as §4, §5, §6, §7, §8, §9, §10

[7] = iv, administrated intravenously
[8] = glucose 2 g/kg 15 minutes after administration, 15 minutes after glucose
[9] = glucose 2 g/kg 15 minutes after administration, 30 minutes after glucose
[10] = glucose 2 g/kg 15 minutes after administration, 1 hour after glucose
[11] = glucose 2 g/kg 15 minutes after administration, 2 hours after glucose
[12] = glucose 2 g/kg 15 minutes after administration
[13] = time 0 (baseline 15 minutes after administration, before glucose 2 g/kg)
[14] = glucose 2 g/kg 8 hours after administration, 15 minutes after glucose
[15] = glucose 2 g/kg 8 hours after administration, 30 minutes after glucose
[16] = glucose 2 g/kg 8 hours after administration, 1 hour after glucose
[17] = glucose 2 g/kg 8 hours after administration, 2 hours after glucose
[18] = glucose 2 g/kg 8 hours after administration
[19] = time 0 (baseline 8 hours after administration, before glucose 2 g/kg)

Question: Which results are given for `OC[C@H]1O[C@@H](c2ccc(Cl)c(C(F)(F)c3ccc(OCC(F)(F)F)cc3)c2)[C@H](O)[C@@H](O)[C@@H]1O` [Compound 3]?
Answer: CI_obs ([1]; administrated intravenously): 0.75 mL/min/kg; Vss_obs ([1]; administrated intravenously): 1.56 L/kg; AUC(0-inf) [1, 7]: 260000 ng·h/mL; AUC(0-t) [1, 7]: 113000 ng·h/mL; C0 [1, 7]: 6640 ng/mL; MRT [1, 7]: 10.1 h; half-life [1, 7]: 28.3 h; AUC(0-inf) ([1]; po, administrated orally): 44700 ng·h/mL; AUC(0-t) ([1]; po, administrated orally): 20800 ng·h/mL; C0 ([1]; po, administrated orally): 1400 ng/mL; Tmax ([1]; po, administrated orally): 8 h; half-life ([1]; po, administrated orally): 20.4 h; bioavailability ([1]; po, administrated orally): 17.2%; Blood glucose (male SD rats [2]; [8]): 143.4 ± 18.91 mg/dL; Blood glucose (male SD rats [2]; [9]): 172.8 ± 25.01 mg/dL; Blood glucose (male SD rats [2]; [10]): 148.2 ± 11.98 mg/dL; Blood glucose (male SD rats [2]; [11]): 88.8 ± 17.11 mg/dL; ΔAUC (male SD rats [2]; [12]): 87.6 ± 15.90 mg·h/dL; Blood glucose (male SD rats [2]; [13]): 90.0 ± 13.59 mg/dL; Effect on blood glucose level (in words) (male SD rats [2]): effect of lowering blood glucose level; Blood glucose (male SD rats [3]; [14]): 148.80 ± 9.06 mg/dL; Blood glucose (male SD rats [3]; [15]): 198.60 ± 8.51 mg/dL; Blood glucose (male SD rats [3]; [16]): 183.00 ± 12.25 mg/dL; Blood glucose (male SD rats [3]; [17]): 128.40 ± 3.75 mg/dL; ΔAUC (male SD rats [3]; [18]): 144.40 ± 18.72 mg·h/dL; Blood glucose (male SD rats [3]; [19]): 90.00 ± 1.80 mg/dL; Effect on blood glucose level (in words) (male SD rats [3]): effect of lowering blood glucose level; Urine glucose (male SD rats [4]): 0.10 ± 0.17 mmol/L; Residual percentage of compounds in human liver microsome ([5]; sampling time 0 minute): 100.00%; Residual percentage of compounds in human liver microsome ([5]; sampling time 15 minutes): 105.74%; Residual percentage of compounds in human liver microsome ([5]; sampling time 30 minutes): 98.43%; Residual percentage of compounds in human liver microsome ([5]; sampling time 45 minutes): 101.18%; Residual percentage of compounds in human liver microsome ([5]; sampling time 60 minutes): 97.89%; Residual percentage of compounds in rat liver microsome ([6]; sampling time 0 minute): 100.00%; Residual percentage of compounds in rat liver microsome ([6]; sampling time 15 minutes): 99.00%; Residual percentage of compounds in rat liver microsome ([6]; sampling time 30 minutes): 92.49%; Residual percentage of compounds in rat liver microsome ([6]; sampling time 45 minutes): 97.25%; Residual percentage of compounds in rat liver microsome ([6]; sampling time 60 minutes): 108.11%

Question: Which results are given for `OC[C@H]1O[C@@H](c2ccc(Cl)c(Cc3ccc(OCC(F)(F)F)cc3)c2)[C@H](O)[C@@H](O)[C@@H]1O` [Compound 2]?
Answer: CI_obs ([1]; administrated intravenously): 1.59 mL/min/kg; Vss_obs ([1]; administrated intravenously): 1.18 L/kg; AUC(0-inf) [1, 7]: 107000 ng·h/mL; AUC(0-t) [1, 7]: 87800 ng·h/mL; C0 [1, 7]: 11300 ng/mL; MRT [1, 7]: 7.35 h; half-life [1, 7]: 9.8 h; AUC(0-inf) ([1]; po, administrated orally): 193000 ng·h/mL; AUC(0-t) ([1]; po, administrated orally): 77300 ng·h/mL; C0 ([1]; po, administrated orally): 5090 ng/mL; Tmax ([1]; po, administrated orally): 1.25 h; half-life ([1]; po, administrated orally): 30 h; bioavailability ([1]; po, administrated orally): 88%; Blood glucose (male SD rats [2]; [8]): 126.6 ± 26.11 mg/dL; Blood glucose (male SD rats [2]; [9]): 143.4 ± 24.44 mg/dL; Blood glucose (male SD rats [2]; [10]): 138.6 ± 17.17 mg/dL; Blood glucose (male SD rats [2]; [11]): 97.2 ± 13.59 mg/dL; ΔAUC (male SD rats [2]; [12]): 77.2 ± 20.44 mg·h/dL; Blood glucose (male SD rats [2]; [13]): 85.8 ± 2.75 mg/dL; Effect on blood glucose level (in words) (male SD rats [2]): effect of lowering blood glucose level; Blood glucose (male SD rats [3]; [14]): 103.20 ± 12.64 mg/dL; Blood glucose (male SD rats [3]; [15]): 154.20 ± 2.75 mg/dL; Blood glucose (male SD rats [3]; [16]): 141.00 ± 2.08 mg/dL; Blood glucose (male SD rats [3]; [17]): 85.20 ± 1.04 mg/dL; ΔAUC (male SD rats [3]; [18]): 115.00 ± 3.55 mg·h/dL; Blood glucose (male SD rats [3]; [19]): 62.40 ± 2.75 mg/dL; Effect on blood glucose level (in words) (male SD rats [3]): effect of lowering blood glucose level; Urine glucose (male SD rats [4]): 197.90 ± 56.27 mmol/L; Urine glucose level (in words) (male SD rats [4]; compared to the blank control group, oral administration): significantly increased; Residual percentage of compounds in human liver microsome ([5]; sampling time 0 minute): 100.00%; Residual percentage of compounds in human liver microsome ([5]; sampling time 15 minutes): 80.84%; Residual percentage of compounds in human liver microsome ([5]; sampling time 30 minutes): 78.78%; Residual percentage of compounds in human liver microsome ([5]; sampling time 45 minutes): 76.73%; Residual percentage of compounds in human liver microsome ([5]; sampling time 60 minutes): 75.34%; Residual percentage of compounds in rat liver microsome ([6]; sampling time 0 minute): 100.00%; Residual percentage of compounds in rat liver microsome ([6]; sampling time 15 minutes): 88.20%; Residual percentage of compounds in rat liver microsome ([6]; sampling time 30 minutes): 94.51%; Residual percentage of compounds in rat liver microsome ([6]; sampling time 45 minutes): 91.65%; Residual percentage of compounds in rat liver microsome ([6]; sampling time 60 minutes): 88.27%
